Measured values: US11033538B2, “Dosing regimens for the treatment of lysosomal storage diseases using pharmacological chaperones” (Amicus Therapeutics, Inc., priority 2007, dated 2021)
Numbering of substitutions follows the chain as printed. Where two headings read alike, the source gives them in different places.

Experiments:
hR301Q GLA = biological target: T1, hR301Q GLA (Homo sapiens, UniProt P06280, R301Q); assay: Example 13, half-life of elevated hR301Q GLA after DGJ withdrawal; format: in vivo, mice; details: after 4 weeks 100 mg/kg/day DGJ, washout; exponential decay curves
T1 construct: from tissue; host or cells: skin, heart, kidney lysates of hR301Q GLA Tg/KO mice
T1 sequence (P06280 32-429 R301Q): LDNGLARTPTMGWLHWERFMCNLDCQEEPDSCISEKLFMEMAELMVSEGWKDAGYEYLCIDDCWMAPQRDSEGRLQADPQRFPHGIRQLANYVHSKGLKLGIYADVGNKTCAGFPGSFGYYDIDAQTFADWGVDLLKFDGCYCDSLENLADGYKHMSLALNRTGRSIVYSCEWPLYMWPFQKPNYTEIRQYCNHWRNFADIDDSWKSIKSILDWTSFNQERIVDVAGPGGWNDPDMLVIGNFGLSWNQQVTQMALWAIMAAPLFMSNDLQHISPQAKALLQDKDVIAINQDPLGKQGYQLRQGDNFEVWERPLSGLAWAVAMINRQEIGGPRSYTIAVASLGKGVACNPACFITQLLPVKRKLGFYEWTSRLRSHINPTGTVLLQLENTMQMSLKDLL

GL-3 [1] = assay: Example 8, GL-3 in tissues of transgenic mice expressing R301Q; format: in vivo; details: 100 mg/kg ad libitum, four weeks
α-GAL [2] = biological target: T2, α-GAL (Homo sapiens, UniProt P06280); format: in vivo
T2 construct: α-GAL activity was calculated in white blood cells (WBC); endogenous in cells; host or cells: white blood cells of healthy male volunteers
T2 sequence (P06280 32-429): T1 sequence (P06280 32-429 R301Q) with Q270R
Protocol: A multiple-dose Phase I trial was conducted and consisted of a total of 16 healthy volunteers divided into two groups of eight subjects. […] All subjects in one group received placebo or 50 mg twice a day for seven days, and all subjects in the other group received placebo or 150 mg twice a day for seven days. Subjects were evaluated at the beginning of the study, on Day 7 after seven days of treatment and on Day 14 after a seven day washout period.
Blood samples (10 mL each) were collected in blood collection tubes containing EDTA and WBC extracted before dosing and at the following times thereafter: 100 hours, 150 hours, and 336 hours. Samples were treated as described above, and WBC α-GAL enzymatic activity levels were determined as described in Desnick, R. J. (ed) Enzyme therapy in genetic diseases. Vol 2. Alan R Liss, New York, pp 17-32. Statistical Analysis. Safety data including laboratory evaluations, physical exams, adverse events, ECG monitoring and vital signs assessments were summarized by treatment group and point of time of collection. Descriptive statistics (arithmetic mean, standard deviation, median, minimum and maximum) were calculated for quantitative safety data as well as for the difference to baseline. Frequency counts were compiled for classification of qualitative safety data. In addition, a shift table describing out of normal range shifts was provided for clinical laboratory results. A normal-abnormal shift table was also presented for physical exam results and ECGs.

[3] = Example 13, tissue half-life of DGJ; format: in vivo, mice; details: male, hR301Q GLA Tg/KO, mouse, oral; skin, heart, kidney; after 4 weeks 100 mg/kg/day
α-GAL [4] = format: in vivo, human
Protocol: Four male patients received a single 150 mg Q.O.D for 12 weeks (Group B); while five male patients received 150 mg Q.O.D. for 24 weeks (Group C). Finally nine female patients were randomized to receive one of three dosages: 50, 150 or 250 mg Q.O.D for 12 weeks (Group D) (FIG. 8).
Enzymatic activity of α-Gal in leukocytes (white blood cells; WBCs) of the patients was measured as a percentage of the average α-Gal activity in white blood cells of 15 healthy volunteers. α-GAL activity was assessed in fractionated tissue obtained from biopsies, and in blood leukocytes and plasma (from blood collected at baseline and every month).

GL-3 [5] = assay: Example 15, 24-hour urine GL-3; format: in vivo, human
Protocol: (§1) Plasma lyso-Gb3 and 24-hour urine GL-3 were analyzed by liquid chromatography-mass-spectroscopy using a novel stable isotope-labeled internal standard, 13C6-lyso-Gb3 (lower-limit-of-quantification: 0.200 ng/mL, 0.254 nmol/L).

α-GAL [6] = assay: Example 8, α-GAL activity in cell lines expressing Fabry missense mutations; format: cell-based
Source text: Cell lines were constructed to express one of 75 Fabry missense mutations. […] 20 of the 75 cell lines expressed a missense mutation corresponding to later-onset Fabry disease.

GL-3 [7] = assay: Example 11, GL-3 levels by LC-MS/MS in hR301Q GLA Tg/KO mice, daily vs less frequent dosing; format: in vivo; details: 300 mg/kg in drinking water, 4 weeks; skin, heart, kidney, plasma
Protocol: Lysates were prepared from skin, heart, kidney and plasma. GL-3 levels were measured by LC-MS/MS (expressed in mg/g tissue weight or mg/mL plasma). […] Each bar represents the mean±SEM of 10-16 mice/group.

lyso-Gb3 = assay: Example 15, plasma lyso-Gb3; format: in vivo, human
Protocol: as §1

## OC[C@H]1NC[C@H](O)[C@@H](O)[C@H]1O [DGJ, (2R,3S,4R,5S)-2-(hydroxymethyl) piperdine-3,4,5-triol]
hR301Q GLA
  half-life of elevated tissue hR301Q GLA levels: 2 to 2.5 days
GL-3 [1]
  GL-3 aggregates, histology of renal tube and cardiac sections: presence of GL-3 aggregates was reduced
  concentration of GL-3 in the sampled tissues: reduced
α-GAL [2]; 50 mg b.i.d. or 150 mg b.i.d.
  inhibition of WBC α-GAL enzymatic activity: did not inhibit WBC α-GAL enzymatic activity
α-GAL [2]; 50 mg b.i.d., 100 hours
  WBC α-GAL enzymatic activity: 120 % pre-dose levels
α-GAL [2]; 50 mg b.i.d., 150 hours
  WBC α-GAL enzymatic activity: 130 % pre-dose levels
α-GAL [2]; 50 mg b.i.d., 336 hours
  WBC α-GAL enzymatic activity: 145 % pre-dose levels
α-GAL [2]; 150 mg b.i.d., 100 hours
  WBC α-GAL enzymatic activity: 150 % pre-dose levels
α-GAL [2]; 150 mg b.i.d., 150 hours
  WBC α-GAL enzymatic activity: 185 % pre-dose levels
α-GAL [2]; 150 mg b.i.d., 336 hours
  WBC α-GAL enzymatic activity: 185 % pre-dose levels
α-GAL [2]; 50 and 150 mg twice daily for 7 days
  GLA levels in white blood cell lysates: increased GLA levels
α-GAL [2]; highest dose level (150 mg twice a day for seven days), healthy volunteers
  increase in levels of α-GAL in white blood cells: ~2 fold
α-GAL [2]; highest dose level, after the last dose
  persistence of the α-GAL increase: maintained for at least seven days after the last dose
[3]
  half-life: 360 to 420 min
α-GAL [4]; eleven good responders, male, pre vs post treatment
  mean increase in WBC α-Gal activity: 630%
α-GAL [4]; four moderate responders, male
  mean increase in leukocyte α-Gal activity: 170%
α-GAL [4]; male patients, Groups A-C
  number of good responders (α-Gal activity): eleven
  number of moderate responders (α-Gal activity): four
  number of non responders (α-Gal activity): two
α-GAL [4]; nine female patients, Group D (50, 150 or 250 mg Q.O.D, 12 weeks)
  mean increase in WBC α-Gal activity compared to baseline: 146%
α-GAL [4]; non responders, male
  leukocyte or kidney α-Gal activity: None of the “non” responders exhibited any overall increase
α-GAL [4]; one moderate responder, male
  mean increase in kidney α-Gal activity: 100%
α-GAL [4]; six of the good responders, male
  mean increase in kidney α-Gal activity: 1090%
GL-3 [5]; baseline to month 6, suitable mutants, p=0.44 vs placebo
  mean change in 24-hour urine GL-3 substrate (±SEM) concentration: −361±169 ng/mg creatinine
GL-3 [5]; month 6, suitable mutants
  24-hour urine GL-3 substrate (±SEM) concentration reached: 555±151 ng/mg creatinine
α-GAL [6]; 47 of the 75 cell lines
  cell lines in which DGJ enhanced α-GAL activity: 63%
α-GAL [6]; classic Fabry mutations, 34 of 57 cell lines
  cell lines with increase in enzymatic activity: 60%
α-GAL [6]; later-onset Fabry mutations, 19 of 20 cell lines
  cell lines with increase in α-GAL activity: 95%
GL-3 [7]
  GL-3 levels by LC-MS/MS, less frequent (4 days on/3 days off) vs daily dosing: greater reduction in GL-3 levels
lyso-Gb3; after 6 months of DGJ, baseline 118±48, N=8 males, p=0.0004
  Mean plasma lyso-Gb3: 75 ± 42 nM
lyso-Gb3; six months of DGJ, mITT-suitable, p=0.0033
  plasma lyso-Gb3 levels: significant reduction in plasma lyso-Gb3 levels compared to placebo
lyso-Gb3; switching from placebo to DGJ between 6 and 12 months, p<0.0001
  plasma lyso-Gb3: significant reduction in plasma lyso-Gb3
